Experimental data taken from US7732200B2, “Materials and methods for nerve grafting, selection of nerve grafts, and in vitro nerve tissue culture” (University of Florida Research Foundation, Inc., priority 2001, dated 2010).

Assays:
chick DRG neurons = experiment: Cryoculture assay using human nerve segments; type: cell-based; settings: DRG neurons 24 h; P<0.001 vs vehicle
Method: Cryoculture bioassay. Cryoculture is a neurite outgrowth assay in which neurons are cultured directly on fresh/frozen nerve sections and was performed as described previously (Ferguson T A et al. [2000] Mol Cell Neurosci, 16:157-167). Briefly, chondroitinase- and vehicle-treated nerve segments were sectioned at 20 μm, mounted on sterile, aminopropyltriethoxysilane (APTS)-coated coverslips and stored at −20° C. until used. Where indicated, sections were treated with chondroitinase ABC (0.1 unit/ml) or vehicle (50 mM Tris-HCl, pH 8.0), containing 50 mM NaCl) for 2 h at 37° C. Purified dorsal root ganglionic (DRG) neurons from day 8 chick embryos were seeded directly on the nerve sections in a defined N2 medium (Bottenstein J E et al. [1980] Exp Cell Res 125:183-190) containing 10 ng/ml nerve growth factor. Cryoculture assays were terminated after 24 h of incubation by fixation with 100% methanol. Neuritic growth by DRG neurons was accessed by GAP-43 immunofluorescent labeling. Epifluorescent photomicrographs were acquired as described for tissue sections. Neurite lengths were measured directly using IMAGE-PRO PLUS software (MEDIA CYBERNETICS, Silver Springs, Md.). At least 250 neurons with neurites greater than one cell body (˜15 μm) were scored for each condition in each experiment. […]

[1] = system: embryonic chick DRG neurons; experiment: Cryoculture bioassay of chondroitinase-treated acellular rat nerve segments; type: cell-based
Excerpt: (§1) Preparation of acellular nerve grafts treated with chondroitinase: Adult (180-200 g) female SPRAGUE DAWLEY rats (HARLAN, Indianapolis, Ind.) were used as nerve donors and recipient hosts. Donor rats were anesthetized with halothane and decapitated. Sciatic nerves were exposed through a gluteal muscle-splitting incision and isolated free of underlying fascia. A 15-mm nerve segment was excised rostral to the bifurcation into common peroneal and tibial nerves. The segments were rinsed with cold sterile Ringer's solution, stabilized by pinning the ends to a thin plastic support, and transferred to a cryogenic vial. The vials were submerged in liquid nitrogen for 2 minutes and then transferred to a 37° C. water bath for 2 minutes. This freeze/thaw cycle was repeated, yielding acellular nerve grafts that were then stored in liquid nitrogen. On the day before grafting, the nerve grafts were warmed to room temperature and incubated in 100 μl phosphate buffered saline pH 7.4 (PBS) containing 2 units/ml chondroitinase ABC (SIGMA, St. Louis, Mo.) or in PBS (vehicle) only for 16 hours at 37° C. The grafts were rinsed twice with Ringer's and kept on ice prior to use. The chondroitinase ABC preparation was highly purified and stated by the manufacturer to be essentially free of protease activity.
Cryoculture bioassay. Cryoculture is a neurite outgrowth assay in which neurons are cultured directly on fresh/frozen nerve sections and was performed as described previously (Ferguson T A et al. [2000] Mol Cell Neurosci, 16:157-167). Briefly, chondroitinase- and vehicle-treated nerve segments were sectioned at 20 μm, mounted on sterile, aminopropyltriethoxysilane (APTS)-coated coverslips and stored at −20° C. until used. Where indicated, sections were treated with chondroitinase ABC (0.1 unit/ml) or vehicle (50 mM Tris-HCl, pH 8.0), containing 50 mM NaCl) for 2 h at 37° C. Purified dorsal root ganglionic (DRG) neurons from day 8 chick embryos were seeded directly on the nerve sections in a defined N2 medium (Bottenstein J E et al. [1980] Exp Cell Res 125:183-190) containing 10 ng/ml nerve growth factor. Cryoculture assays were terminated after 24 h of incubation by fixation with 100% methanol. Neuritic growth by DRG neurons was accessed by GAP-43 immunofluorescent labeling. […] Neurite lengths were measured directly using IMAGE-PRO PLUS software (MEDIA CYBERNETICS, Silver Springs, Md.). At least 250 neurons with neurites greater than one cell body (˜15 μm) were scored for each condition in each experiment.
Inactivation of inhibitory CSPG in chondroitinase-treated acellular nerve was determined by cryoculture bioassay. Embryonic chick DRG neurons were seeded onto sections of prepared nerve segments and the neurite-promoting activity was assessed by scoring neurite growth. […]

sciatic nerve = experiment: Axonal regeneration into acellular interpositional nerve grafts (GAP-43 profiles); type: in vivo, rat
Excerpt: as §1
Interpositional nerve grafting for chondroitinase experiments. Twelve rats received bilateral acellular nerve grafts, one chondroitinase-treated and one vehicle-treated graft. Host rats were deeply anesthetized using xylazine (15 mg/kg, i.m.) and ketamine (110 mg/kg, i.p.). The sciatic nerve was exposed and supported by a plastic insert placed between the nerve and underlying tissue. […]
The main grafts were sectioned serially on the transverse plane in recorded measure to assess the extent of axonal growth by microscopy. […] GAP-43-positive axon profiles were scored using IMAGE-PRO PLUS software (MEDIA CYBERNETICS, Silver Springs, Md.).
Immunocytochemistry. Axonal regeneration was assessed by GAP-43 immunofluorescence and digital image analysis. […]

For chondroitinase ABC, the “growth-promoting properties of human nerves (neurite length)” value (chick DRG neurons) was “increased”, the average neurite length ([1]; acellular nerve pretreated en bloc, DRG neurons 24 h) was 96 μm and the “increase in neurite growth compared to the control condition” value ([1]; en bloc treatment vs en bloc vehicle) was 95%. The “increase in neurite-promoting activity by post-treatment of sections” value ([1]; nerve treated en bloc with vehicle only, sections post-treated 0.1 unit/ml 2 h) was 86%, the “effect of post-treatment on sections from en bloc treated nerve” value ([1]; sections of en bloc chondroitinase-treated nerve grafts) was “only a slight additive effect” and the “axonal penetration vs control at 0.3 mm from the host-graft interface” value (sciatic nerve; 4-day grafts, 3 animals) was “five-fold greater”. For the same substance, the “average number of axons (GAP-43-immunopositive profiles) entering grafts vs control grafts” value (sciatic nerve; 8-day grafts, 9 rats with bilateral grafts) was “more than three-fold greater” and the “propensity of axons to grow within basal laminae” value (sciatic nerve; 8-day grafts, GAP-43 and laminin double label) was “unaltered”.
